System: 519858-162-T-J1-PDC spheroid growth inhibition
Test: Anticancer human tumor 519858-162-T-J1-PDC patient-derived colon adenocarcinoma cell line growth inhibition [TAK]
Settings: spheroids with HUVEC and MSC; for IC50: curve of first compound; for viability, T/C: stronger effect = lower value
How it was run: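 Spheroids of 60% malignant cells, 25% HUVEC and 15% hMSC were exposed to targeted agents combined with TAK-243 or ipatasertib. Concentrations started at or near clinical Cmax (10 microM if unknown) and descended in half-log steps.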

[1] = second compound 0.3 µM, first compound 0.0316 µM
[2] = second compound 0.3 µM, first compound 0.1 µM
[3] = second compound 0.3 µM, first compound 0.316 µM
[4] = second compound 0.3 µM, first compound 1 µM
[5] = second compound 0.3 µM, first compound 3.16 µM
[6] = second compound 0.3 µM, first compound 10 µM
[7] = second compound 0.949 µM, first compound 0.0316 µM
[8] = second compound 0.949 µM, first compound 0.1 µM
[9] = second compound 0.949 µM, first compound 0.316 µM
[10] = second compound 0.949 µM, first compound 1 µM
[11] = second compound 0.949 µM, first compound 3.16 µM
[12] = second compound 0.949 µM, first compound 10 µM
[13] = second compound 3 µM, first compound 0.0316 µM
[14] = second compound 3 µM, first compound 0.1 µM
[15] = second compound 3 µM, first compound 0.316 µM
[16] = second compound 3 µM, first compound 1 µM
[17] = second compound 3 µM, first compound 3.16 µM
[18] = second compound 3 µM, first compound 10 µM
[19] = second compound 9.49 µM, first compound 0.0316 µM
[20] = second compound 9.49 µM, first compound 0.1 µM
[21] = second compound 9.49 µM, first compound 0.316 µM
[22] = second compound 9.49 µM, first compound 1 µM
[23] = second compound 9.49 µM, first compound 3.16 µM
[24] = second compound 9.49 µM, first compound 10 µM
[25] = second compound 30 µM, first compound 0.0316 µM
[26] = second compound 30 µM, first compound 0.1 µM
[27] = second compound 30 µM, first compound 0.316 µM
[28] = second compound 30 µM, first compound 1 µM
[29] = second compound 30 µM, first compound 3.16 µM
[30] = second compound 30 µM, first compound 10 µM
[31] = second compound 0.3 µM, first compound 0.000316 µM
[32] = second compound 0.3 µM, first compound 0.001 µM
[33] = second compound 0.3 µM, first compound 0.00316 µM
[34] = second compound 0.3 µM, first compound 0.01 µM
[35] = second compound 0.949 µM, first compound 0.000316 µM
[36] = second compound 0.949 µM, first compound 0.001 µM
[37] = second compound 0.949 µM, first compound 0.00316 µM
[38] = second compound 0.949 µM, first compound 0.01 µM
[39] = second compound 3 µM, first compound 0.000316 µM
[40] = second compound 3 µM, first compound 0.001 µM
[41] = second compound 3 µM, first compound 0.00316 µM
[42] = second compound 3 µM, first compound 0.01 µM
[43] = second compound 9.49 µM, first compound 0.000316 µM
[44] = second compound 9.49 µM, first compound 0.001 µM
[45] = second compound 9.49 µM, first compound 0.00316 µM
[46] = second compound 9.49 µM, first compound 0.01 µM
[47] = second compound 30 µM, first compound 0.000316 µM
[48] = second compound 30 µM, first compound 0.001 µM
[49] = second compound 30 µM, first compound 0.00316 µM
[50] = second compound 30 µM, first compound 0.01 µM
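Note: each agent tested in combination with TAK-243 or ipatasertib; spheroids exposed to drugs for 7 days.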

CC(C)(C)c1nc(-c2cccc(NS(=O)(=O)c3c(F)cccc3F)c2F)c(-c2ccnc(N)n2)s1 + CC(C)NCC(C(=O)N1CCN(c2ncnc3c2C(C)CC3O)CC1)c1ccc(Cl)cc1
IC50 (second compound 0.3 µM): > 10 µM
IC50 (second compound 0.949 µM): > 10 µM
IC50 (second compound 3 µM): > 10 µM
IC50 (second compound 9.49 µM): > 10 µM
IC50 (second compound 30 µM): > 10 µM
viability, T/C [1]: 112%
viability, T/C [2]: 128%
viability, T/C [3]: 115%
viability, T/C [4]: 130%
viability, T/C [5]: 107%
viability, T/C [6]: 77.9%
viability, T/C [7]: 109%
viability, T/C [8]: 115%
viability, T/C [9]: 130%
viability, T/C [10]: 113%
viability, T/C [11]: 100%
viability, T/C [12]: 86.7%
viability, T/C [13]: 102%
viability, T/C [14]: 102%
viability, T/C [15]: 116%
viability, T/C [16]: 97.3%
viability, T/C [17]: 106%
viability, T/C [18]: 61.2%
viability, T/C [19]: 104%
viability, T/C [20]: 92.6%
viability, T/C [21]: 112%
viability, T/C [22]: 91.6%
viability, T/C [23]: 84.4%
viability, T/C [24]: 72.6%
viability, T/C [25]: 105%
viability, T/C [26]: 86.9%
viability, T/C [27]: 98.1%
viability, T/C [28]: 82.2%
viability, T/C [29]: 83.2%
viability, T/C [30]: 75.4%

CC(C)CC(NC(=O)CNC(=O)c1cc(Cl)ccc1Cl)B1OC(=O)CC(CC(=O)O)(C(=O)O)O1 (stereo not given) + CC(C)NCC(C(=O)N1CCN(c2ncnc3c2C(C)CC3O)CC1)c1ccc(Cl)cc1
IC50 (second compound 0.3 µM): > 0.1 µM
IC50 (second compound 0.949 µM): > 0.1 µM
IC50 (second compound 3 µM): > 0.1 µM
IC50 (second compound 9.49 µM): > 0.1 µM
IC50 (second compound 30 µM): > 0.1 µM
viability, T/C [31]: 94.4%
viability, T/C [32]: 101%
viability, T/C [33]: 99%
viability, T/C [34]: 79%
viability, T/C [1]: 95.9%
viability, T/C [2]: 59.7%
viability, T/C [35]: 114%
viability, T/C [36]: 91.7%
viability, T/C [37]: 79.5%
viability, T/C [38]: 81.3%
viability, T/C [7]: 88%
viability, T/C [8]: 67.7%
viability, T/C [39]: 101%
viability, T/C [40]: 88.5%
viability, T/C [41]: 92.5%
viability, T/C [42]: 71.3%
viability, T/C [13]: 81.7%
viability, T/C [14]: 82.9%
viability, T/C [43]: 90%
viability, T/C [44]: 100%
viability, T/C [45]: 80.4%
viability, T/C [46]: 77.2%
viability, T/C [19]: 92.5%
viability, T/C [20]: 71.1%
viability, T/C [47]: 90.5%
viability, T/C [48]: 87.7%
viability, T/C [49]: 108%
viability, T/C [50]: 79.5%
viability, T/C [25]: 73.3%
viability, T/C [26]: 78.6%

CC(C)n1nc(-c2ccc3oc(N)nc3c2)c2c(N)ncnc21 + CC(C)NCC(C(=O)N1CCN(c2ncnc3c2C(C)CC3O)CC1)c1ccc(Cl)cc1
IC50 (second compound 0.3 µM): > 0.1 µM
IC50 (second compound 0.949 µM): > 0.1 µM
IC50 (second compound 3 µM): > 0.1 µM
IC50 (second compound 9.49 µM): > 0.1 µM
IC50 (second compound 30 µM): > 0.1 µM
viability, T/C [31]: 110%
viability, T/C [32]: 78.7%
viability, T/C [33]: 89.7%
viability, T/C [34]: 89.7%
viability, T/C [1]: 93.8%
viability, T/C [2]: 68.1%
viability, T/C [35]: 85.7%
viability, T/C [36]: 88.2%
viability, T/C [37]: 107%
viability, T/C [38]: 83.8%
viability, T/C [7]: 90%
viability, T/C [8]: 71.1%
viability, T/C [39]: 80.5%
viability, T/C [40]: 102%
viability, T/C [41]: 89.3%
viability, T/C [42]: 83.9%
viability, T/C [13]: 71.4%
viability, T/C [14]: 72.2%
viability, T/C [43]: 81.9%
viability, T/C [44]: 90.1%
viability, T/C [45]: 84.1%
viability, T/C [46]: 93.7%
viability, T/C [19]: 74.1%
viability, T/C [20]: 73.9%
viability, T/C [47]: 107%
viability, T/C [48]: 80.2%
viability, T/C [49]: 105%
viability, T/C [50]: 79%
viability, T/C [25]: 67.1%
viability, T/C [26]: 72.2%

CCCS(=O)(=O)Nc1ccc(F)c(C(=O)c2c[nH]c3ncc(-c4ccc(Cl)cc4)cc23)c1F + CC(C)NCC(C(=O)N1CCN(c2ncnc3c2C(C)CC3O)CC1)c1ccc(Cl)cc1
IC50 (second compound 0.3 µM): > 100 µM
IC50 (second compound 0.949 µM): > 100 µM
IC50 (second compound 3 µM): > 100 µM
IC50 (second compound 9.49 µM): > 100 µM
IC50 (second compound 30 µM): 30.4 µM
viability, T/C [3]: 85.8%
viability, T/C [4]: 109%
viability, T/C [5]: 95.8%
viability, T/C [6]: 109%
viability, T/C (second compound 0.3 µM, first compound 31.6 µM): 90.6%
viability, T/C (second compound 0.3 µM, first compound 100 µM): 103%
viability, T/C [9]: 74.8%
viability, T/C [10]: 99.7%
viability, T/C [11]: 118%
viability, T/C [12]: 83.1%
viability, T/C (second compound 0.949 µM, first compound 31.6 µM): 51%
viability, T/C (second compound 0.949 µM, first compound 100 µM): 99.9%
viability, T/C [15]: 106%
viability, T/C [16]: 102%
viability, T/C [17]: 114%
viability, T/C [18]: 82.8%
viability, T/C (second compound 3 µM, first compound 31.6 µM): 99.8%
viability, T/C (second compound 3 µM, first compound 100 µM): 113%
viability, T/C [21]: 99.8%
viability, T/C [22]: 103%
viability, T/C [23]: 84.8%
viability, T/C [24]: 88.1%
viability, T/C (second compound 9.49 µM, first compound 31.6 µM): 77.9%
viability, T/C (second compound 9.49 µM, first compound 100 µM): 96%
viability, T/C [27]: 76.3%
viability, T/C [28]: 101%
viability, T/C [29]: 94.9%
viability, T/C [30]: 61%
viability, T/C (second compound 30 µM, first compound 31.6 µM): 23.6%
viability, T/C (second compound 30 µM, first compound 100 µM): 75.5%

Source: PubChem BioAssay AID2060354 (Molecular Pharmacology Branch, DTP, NCI, 2025)
